Experiments:
[1] = xn = mol fraction of the nth substance listed; conditions: 100 kPa, Liquid; for speed of sound: Frequency=3 MHz, Single path-length method; for mass density: Vibrating tube method
[2] = refractive index (Na D-line) (dimensionless); xn = mol fraction of the nth substance listed; conditions: 100 kPa, Liquid, Standard Abbe refractometry

CCOCCO [2-ethoxyethan-1-ol] + CCOC(=O)OCC
Conditions	mass density, [1] [kg/m3]	refractive index, [2]	speed of sound, [1] [m/s]
298.15 K, x2 = 0	925.54	1.4055	1302.8
298.15 K, x2 = 0.0957	929.94	1.4036	1287
298.15 K, x2 = 0.1529	932.54	1.4025	1278.3
298.15 K, x2 = 0.2624	937.43	1.4003	1262.2
298.15 K, x2 = 0.3484	941.21	1.3985	1250
298.15 K, x2 = 0.4447	945.38	1.3963	1236.7
298.15 K, x2 = 0.5468	949.76	1.3939	1223.5
298.15 K, x2 = 0.6539	954.3	1.3912	1210.8
298.15 K, x2 = 0.7721	959.31	1.3882	1198.3
298.15 K, x2 = 0.8793	963.87	1.3855	1188
303.15 K, x2 = 0	920.99	1.4042	1285
303.15 K, x2 = 0.0957	925.24	1.4024	1268.9
303.15 K, x2 = 0.1529	927.76	1.4012	1259.8
303.15 K, x2 = 0.2624	932.5	1.3989	1243.4
303.15 K, x2 = 0.3484	936.17	1.397	1230.7
303.15 K, x2 = 0.4447	940.24	1.3947	1217.3
303.15 K, x2 = 0.5468	944.5	1.3921	1204
303.15 K, x2 = 0.6539	948.94	1.3894	1191.1
303.15 K, x2 = 0.7721	953.83	1.3862	1178.3
303.15 K, x2 = 0.8793	958.31	1.3834	1167.8
308.15 K, x2 = 0	916.41	1.4028	1267.3
308.15 K, x2 = 0.0957	920.51	1.4011	1250.7
308.15 K, x2 = 0.1529	922.94	1.3999	1241.3
308.15 K, x2 = 0.2624	927.54	1.3975	1224.6
308.15 K, x2 = 0.3484	931.11	1.3954	1211.9
308.15 K, x2 = 0.4447	935.08	1.393	1198.3
308.15 K, x2 = 0.5468	939.21	1.3904	1184.7
308.15 K, x2 = 0.6539	943.54	1.3875	1171.6
308.15 K, x2 = 0.7721	948.31	1.3843	1158.4
308.15 K, x2 = 0.8793	952.72	1.3813	1147.6
313.15 K, x2 = 0	911.8	1.4016	1249.6
313.15 K, x2 = 0.0957	915.76	1.3999	1232.5
313.15 K, x2 = 0.1529	918.09	1.3987	1223
313.15 K, x2 = 0.2624	922.55	1.3961	1205.9
313.15 K, x2 = 0.3484	926	1.3939	1193
313.15 K, x2 = 0.4447	929.84	1.3914	1179.3
313.15 K, x2 = 0.5468	933.88	1.3886	1165.6
313.15 K, x2 = 0.6539	938.09	1.3857	1152.1
313.15 K, x2 = 0.7721	942.77	1.3823	1138.6
313.15 K, x2 = 0.8793	947.11	1.3792	1127.5
318.15 K, x2 = 0	907.15	1.4001	1232
318.15 K, x2 = 0.0957	910.93	1.3986	1214.4
318.15 K, x2 = 0.1529	913.21	1.3973	1204.6
318.15 K, x2 = 0.2624	917.51	1.3946	1187.2
318.15 K, x2 = 0.3484	920.86	1.3923	1174.3
318.15 K, x2 = 0.4447	924.57	1.3897	1160.4
318.15 K, x2 = 0.5468	928.49	1.3868	1146.6
318.15 K, x2 = 0.6539	932.6	1.3838	1132.8
318.15 K, x2 = 0.7721	937.19	1.3804	1119
318.15 K, x2 = 0.8793	941.45	1.377	1107.8
323.15 K, x2 = 0	902.46	1.3988	1214.3
323.15 K, x2 = 0.0957	906.11	1.3973	1196.3
323.15 K, x2 = 0.1529	908.28	1.396	1186.3
323.15 K, x2 = 0.2624	912.44	1.3931	1168.7
323.15 K, x2 = 0.3484	915.7	1.3907	1155.6
323.15 K, x2 = 0.4447	919.3	1.388	1141.6
323.15 K, x2 = 0.5468	923.1	1.3851	1127.5
323.15 K, x2 = 0.6539	927.1	1.382	1113.6
323.15 K, x2 = 0.7721	931.58	1.3784	1099.6
323.15 K, x2 = 0.8793	935.76	1.3749	1088.1

— the NIST ThermoML archive (doi:10.1016/j.jct.2016.11.002)
